Legend:
human FXR = target: T1, human FXR (Homo sapiens, UniProt Q96RI1); details: in the presence of 50 uM CDCA
T1 sequence (Q96RI1 262-486 limits assumed): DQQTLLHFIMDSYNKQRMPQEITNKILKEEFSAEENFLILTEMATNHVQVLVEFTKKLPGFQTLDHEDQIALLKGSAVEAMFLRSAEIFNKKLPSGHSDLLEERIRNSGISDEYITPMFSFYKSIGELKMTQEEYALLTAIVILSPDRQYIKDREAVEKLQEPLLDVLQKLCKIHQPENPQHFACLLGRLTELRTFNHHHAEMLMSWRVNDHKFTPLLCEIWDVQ
Protocol: FXR reporter cell assays were performed by Indigo Biosciences as directed by Seres Therapeutics using Indigo's FXR reporter CHO cell line, which expresses an FXR receptor hybrid in which the native N-terminal DNA binding domain (DBD) has been replaced with that of a yeast Gal4 DBD. The reporter gene, firefly luciferase, is functionally linked to a Gal4 upstream activation sequence (UAS). […] Luminescence was determined following incubation with substrate and a detection reagent. In addition, live cell count was determined within the assay using a Live Cell Multiplex (LCM) Assay (Indigo Biosciences).

FXR = FXR signaling in mice: CYP7A1 (liver) and FGF-15 (ileum) expression
Description: We therefore tested a dose range of OCA as well as a fixed concentration of CA for their effects on FXR signaling in mice. Ileal and liver FXR signaling was monitored based on the expression of CYP7A1 (liver) and FGF-15 (Ileum).

Compound	hFXR activation in combination with CDCA (human FXR)	CYP7A1 expression (liver) (FXR)	FGF-15 levels (ileum) (FXR)
C[C@H](CCC(=O)O)[C@H]1CC[C@H]2[C@@H]3[C@H](O)[C@H](O)[C@@H]4C[C@H](O)CC[C@]4(C)[C@H]3CC[C@]12C [HCA, hyocholic acid]	activated human FXR in a dose-dependent and synergistic manner	–	–
C[C@H](CCC(=O)O)[C@H]1CC[C@H]2[C@@H]3[C@H](O)C[C@@H]4C[C@H](O)CC[C@]4(C)[C@H]3C[C@H](O)[C@]12C [cholic acid]	–	decreased CYP7A1 expression	increased FGF-15 levels in the ileum
CC[C@H]1[C@@H](O)[C@@H]2[C@H](CC[C@]3(C)[C@@H]([C@H](C)CCC(=O)O)CC[C@@H]23)[C@@]2(C)CC[C@@H](O)C[C@@H]12 [OCA, obeticholic acid]	–	dose dependent decrease in CYP7A1 expression	increase in FGF-15 levels

Reference: patent US11701394B2, “Compositions and methods for treating cholestatic disease” (Seres Therapeutics, Inc., priority 2017, dated 2023)
